Experimental data from ChEMBL document CHEMBL1131101, “2-, 5-, and 6-Halo-3-(2(S)-azetidinylmethoxy)pyridines: synthesis, affinity for nicotinic acetylcholine receptors, and molecular modeling” (J Med Chem, 1998).

What follows are compounds tested against Neuronal acetylcholine receptor; alpha4/beta2 (Rattus norvegicus, UniProt P09483+P12390) (assay: Binding affinity for alpha4 beta-2 nAChR using [3H]epibatidine in rat brain).
Assay type: tissue-based

Chain of Neuronal acetylcholine receptor; alpha4/beta2 (P09483 whole entry): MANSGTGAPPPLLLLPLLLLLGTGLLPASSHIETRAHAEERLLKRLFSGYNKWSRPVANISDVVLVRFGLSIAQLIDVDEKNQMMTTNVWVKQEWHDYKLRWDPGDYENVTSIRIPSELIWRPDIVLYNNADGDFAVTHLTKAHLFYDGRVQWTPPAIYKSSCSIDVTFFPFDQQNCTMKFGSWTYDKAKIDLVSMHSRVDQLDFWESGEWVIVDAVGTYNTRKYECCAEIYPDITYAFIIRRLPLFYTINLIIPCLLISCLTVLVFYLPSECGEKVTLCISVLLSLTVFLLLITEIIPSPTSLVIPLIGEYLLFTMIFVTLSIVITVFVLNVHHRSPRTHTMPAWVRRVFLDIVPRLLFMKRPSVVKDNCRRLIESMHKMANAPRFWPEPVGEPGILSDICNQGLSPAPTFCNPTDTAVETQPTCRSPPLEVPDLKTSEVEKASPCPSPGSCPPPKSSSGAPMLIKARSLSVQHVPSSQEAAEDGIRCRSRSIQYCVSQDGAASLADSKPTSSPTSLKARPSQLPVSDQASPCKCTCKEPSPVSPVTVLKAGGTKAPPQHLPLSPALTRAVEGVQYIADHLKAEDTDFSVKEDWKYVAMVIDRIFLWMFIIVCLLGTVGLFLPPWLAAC
Chain of Neuronal acetylcholine receptor; alpha4/beta2 (P12390 whole entry): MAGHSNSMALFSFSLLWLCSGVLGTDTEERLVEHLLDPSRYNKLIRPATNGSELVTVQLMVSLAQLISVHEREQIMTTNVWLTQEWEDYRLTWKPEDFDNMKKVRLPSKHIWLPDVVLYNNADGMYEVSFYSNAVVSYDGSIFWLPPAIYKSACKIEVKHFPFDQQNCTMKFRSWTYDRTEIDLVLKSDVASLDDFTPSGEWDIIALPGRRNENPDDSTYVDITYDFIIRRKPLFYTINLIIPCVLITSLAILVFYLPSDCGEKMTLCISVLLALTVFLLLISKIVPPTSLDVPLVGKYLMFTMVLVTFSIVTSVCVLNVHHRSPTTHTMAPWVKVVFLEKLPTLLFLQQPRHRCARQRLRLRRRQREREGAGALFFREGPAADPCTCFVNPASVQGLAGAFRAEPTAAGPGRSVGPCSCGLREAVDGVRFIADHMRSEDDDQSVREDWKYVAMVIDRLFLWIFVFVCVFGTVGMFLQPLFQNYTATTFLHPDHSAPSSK

Compound | Ki [nM]
Clc1ncccc1OC[C@@H]1CCN1 | 0.0084
Brc1ncccc1OC[C@@H]1CCN1 | 0.24
Brc1cncc(OC[C@@H]2CCN2)c1 | 0.021
Ic1ccc(OC[C@@H]2CCN2)cn1 | 0.15
Fc1ccc(OC[C@@H]2CCN2)cn1 | 0.025
Ic1ncccc1OC[C@@H]1CCN1 | > 0.001
c1cncc(OC[C@@H]2CCN2)c1 | 0.017
Clc1cncc(OC[C@@H]2CCN2)c1 | 0.03
Fc1cncc(OC[C@@H]2CCN2)c1 | 0.025
